Experimental data published in paper PMC11727121, “Intrinsic PD‐L1 Degradation Induced by a Novel Self‐Assembling Hexapeptide for Enhanced Cancer Immunotherapy” (Advanced Science, 2024).
Square brackets hold non-standard residues; d marks the D form. Ends that are not written are not given here. Peptide text beside a SMILES is read from it. Met(O) = CS(=O)CC[C@H](N)C(=O)O

Assays:
[1] = test system: 4T1 cells; assay: MTT cytotoxicity assay, 4T1 cells; format: cell-based, mouse; details: 24 h
Experimental: (§1) In Vitro Cell Cytotoxicity and Cell Apoptosis Assay
(§2) The cytotoxicity of KFM and KFMo were assessed as follows. Briefly, 4T1, MC38 and HUVEC cells were seeded on 96-well plate (5000 cells per well) overnight.
(§3) The cells were incubated with 100 µL fresh DMEM containing with various concentration of for 24 h, respectively. Moreover, the 4T1 and MC38 tumor cells co- […]
(§4) cells viability was evaluated using the MTT assay.
(§5) Subsequently, the cells at a density of 1 × 104 were cultivated into 96-well plate and then cultured with or without H2O2 (5 µM or 100 µM) for 24 h. The cells viability was evaluated using the MTT assay. […]

[2] = test system: MC38 cells; assay: MTT cytotoxicity assay, MC38 cells; format: cell-based, mouse; details: 24 h
Experimental: as §1, §2, §3, §4, §5

[3] = test system: HUVEC cells; assay: MTT cytotoxicity assay, HUVEC cells; format: cell-based, Human; details: 24 h
Experimental: as §1, §2, §3, §4, §5

[4] = test system: PD-L1; assay: Western blot analysis of PD-L1 expression in MC38 cells; format: cell-based, mouse; details: compared to PBS control
Experimental: (§6) In vitro Immunogenic Cell Death Assay […]
(§7) presence of DAMPs within indicated treatments were examined by calreticulin (CRT) and high mobility group box 1 protein (HMGB1) expression level. Firstly, 5 × 104 […]
(§8) And then, fixed with 4% formaldehyde for 30 min at room temperature, and washed twice with PBS. A blocking solution of 10% goat serum was added to the wells and incubated for 50 min to minimize nonspecific antibody adsorption. The cells were treated with primary antibodies overnight at 4 ℃, subsequently, stained with FITC -labeled secondary antibodies for 2 h, followed by mounting solution with DAPI, images captured by fluorescence microscopy (Leica DMI3000B). The fluorescence intensity was analyzed using Image J.
(§9) Western Blotting Analysis
(§10) Cellular proteins were extracted with the lysis buffer containing 8 M urea, 0.05 M Tris-HCl (pH 7.5), 1% β-Mercaptoethanol, 1% protease inhibitor, and 1% phosphatase inhibitor, while tumor protein was extracted with the medium RIPA lysis buffer containing 1% protease inhibitor and 1% phosphatase inhibitors by 1-minute ultrasonication, then kept on ice for 30 minutes and microcentrifugated at 12,000 g for 15 minutes at 4 ℃ to remove debris. Immunoblotting was performed using 30 µg and 50 μg of protein lysates from cells and tumors, respectively . […]

[5] = test system: PD-L1; assay: Western blot analysis of PD-L1 expression in 4T1 cells; format: cell-based, mouse
Experimental: as §6, §7, §8, §9, §10

[6] = test system: MC38 tumor; assay: In vivo antitumor study in MC38 tumor-bearing mice; details: MC38 model, peritumoral, MTX 1.5 mg/kg, MET 69.5 mg/kg equivalents, day 0 and 3, n = 5
[7] = test system: 4T1 cells; assay: Cell apoptosis assay by flow cytometry (Annexin V / PI); format: cell-based, mouse; details: 24 h, 5 µM MTX or equivalent, absence of H2O2
Experimental: In Vitro Cell Cytotoxicity and Cell Apoptosis Assay […]
plates at a density of 2 × 10^5 cells/well.
Following incubation, all cells were harvested and
stained with Annexin V and propidium iodide (PI) according to the manufacturer's
protocol. Apoptosis was immediately analyzed using flow cytometry.

[8] = test system: 4T1 cells; assay: In vitro immunogenic cell death assay (CRT, HMGB1); format: cell-based, mouse; details: 12 h, fluorescence staining
Experimental: as §6, §7, §8, §9, §10

Compound: KFMFMK-NH2 [KFM, Lys‐Phe‐Met‐Phe‐Met‐Lys]
- cytotoxicity of peptide (MTT) [1]: negligible cytotoxicity
- cytotoxicity of peptide (MTT) [2]: negligible cytotoxicity
- cytotoxicity of peptide (MTT) [3]: negligible cytotoxicity

Compound: CN(C)C(=N)N=C(N)N [MET, metformin]
- PD-L1 expression (Western blot), in words [4]: reduced
- PD-L1 expression (Western blot), in words [5]: reduced

Compound: C[S+]([O-])CC[C@H](NC(=O)[C@H](Cc1ccccc1)NC(=O)[C@H](CC[S+](C)[O-])NC(=O)[C@H](Cc1ccccc1)NC(=O)[C@@H](N)CCCCN)C(=O)N[C@@H](CCCCN)C(N)=O (stereo partly shown) [KFM°] (H-KF[Met(O)]F[Met(O)]K-NH2)
- cytotoxicity of peptide (MTT) [1]: negligible cytotoxicity
- cytotoxicity of peptide (MTT) [2]: negligible cytotoxicity
- cytotoxicity of peptide (MTT) [3]: negligible cytotoxicity

Compound: O=C1c2c(O)ccc(O)c2C(=O)c2c(NCCNCCO)ccc(NCCNCCO)c21 [MTX, mitoxantrone]
- cytotoxicity of MTX formulations (MTT) ([1]; without H2O2): dose‐dependent cytotoxicity
- tumor growth [6]: partially slowed tumor growth
- cytotoxicity of MTX formulations (MTT) ([2]; without H2O2): dose‐dependent cytotoxicity
- percentage of apoptotic cells [7]: 61.3%
- CRT expression compared to PBS control, in words [8]: marked increase
